Laboratory results: patent publication US9540343B2 (Gilead Sciences, Inc., priority 2011, dated 2017)

How the values were obtained:
HIV-IIIb = test: Test A: Antiviral assay in MT4 cells; assay type: cell-based, HIV-1; conditions: Human immunodeficiency virus 1, IIIB, MT4, 120 h, read-out: % inhibition at 2 μM, percent inhibition of virus-induced cell killing, from dose response curve at 2 uM drug; MT-4 cells infected with HIV-IIIb, 5 days, CellTiter-Glo
in vitro = conditions: human, uninfected MT-4 cells, CC50 (nM), same protocol as Test A, CellTiter-Glo
Procedure: For the antiviral assay, 40 μL of 1× test concentration of 3-fold serially diluted compound in culture medium with 10% FBS was added to each well of a 384-well plate (10 concentrations) in quadruplicate. MT-4 cells were next mixed with HIV-IIIb at an m.o.i of 0.003 for 1 hour, after which time 35 μL of virus/cell mixture (2000 cells) was immediately added to each well containing 40 μL of diluted compound. The plates were then incubated at 37° C. for 5 days. After 5 days of incubation, 25 μl of 2× concentrated CellTiter-Glo™ Reagent (catalog #G7571, Promega Biosciences, Inc., Madison, Wis.) was added to each well containing MT-4 cells. Cell lysis was carried out by incubating at room temperature for 10 min and then chemiluminescence was read.
Test B: Cytotoxicity Assay
Compound cytotoxicity and the corresponding CC50 values was determined using the same protocol as described in the antiviral assay (Test A) except that uninfected cells were used.

With `O=C(Cn1nc(C(F)F)c2c1C(F)(F)C1CC21)N[C@@H](Cc1cc(F)cc(F)c1)c1ncccc1-c1ccc(S(=O)(=O)N2CCCCC2)cc1` (stereo partly drawn) [Example 71, (S)—N-(1-(3-(4-((piperidin-1-yl)sulfonyl)phenyl)-pyridin-2-yl)-2-(3,5-difluorophenyl)ethyl)-2-(3-(difluoromethyl)-5,6-dihydro-4,5-(methano)-6,6-difluoro-cyclopenta[c]pyrazol-1(4H)-yl)acetamide] the inhibition at 2 µM (HIV-IIIb) was 64% and the CC50 at 5 days (in vitro) was > 53200 nM.
`O=C(Cc1c[nH]c2ccc(F)cc12)N[C@@H](Cc1cc(F)cc(F)c1)c1ncccc1-c1ccc(-c2ccccc2)cc1` [Example 416, (S)—N-(1-(3-(biphenyl-4-yl)pyridin-2-yl)-2-(3,5-difluorophenyl)ethyl)-2-(5-fluoro-1H-indol-3-yl)acetamide] showed an inhibition at 2 µM (HIV-IIIb) of 0% and a CC50 at 5 days (in vitro) of 10300 nM.
In the case of `O=C(Cn1nc(C(F)F)c2c1C(F)(F)C1CC21)N[C@@H](Cc1cc(F)cc(F)c1)c1ncccc1-c1ccc(OCC2CC2)cc1` (stereo partly drawn) [Example 206, N—((S)-1-(3-(4-(cyclopropylmethoxy)phenyl)pyridin-2-yl)-2-(3,5-difluorophenyl)ethyl)-2-(3-(difluoromethyl)-5,5-difluoro-3b,4,4a,5-tetrahydro-1H-cyclopropa[3,4]cyclopenta[1,2-c]pyrazol-1-yl)acetamide], the inhibition at 2 µM (HIV-IIIb) is reported as 54% and the CC50 at 5 days (in vitro) is reported as 20000 nM.
With `NC(=O)c1cc(-c2cccnc2[C@H](Cc2cc(F)cc(F)c2)NC(=O)Cn2nc(C(F)(F)F)c3c2CCCC3=O)ccc1F` [Example 79F, (S)-5-(2-(2-(3,5-difluorophenyl)-1-(2-(4-oxo-3-(trifluoromethyl)-4,5,6,7-tetrahydro-1H-indazol-1-yl)acetamido)ethyl)pyridin-3-yl)-2-fluorobenzamide] the inhibition at 2 µM (HIV-IIIb) was 19% and the CC50 at 5 days (in vitro) was > 50600 nM.
For `N#Cc1cccc(-c2cccnc2[C@H](Cc2cc(F)cc(F)c2)NC(=O)Cn2ccc3ccccc32)c1` [Example 95C, (S)—N-(1-(3-(3-cyanophenyl)pyridin-2-yl)-2-(3,5-difluorophenyl)ethyl)-2-(1H-indol-1-yl)acetamide], the inhibition at 2 µM (HIV-IIIb) was 14% and the CC50 at 5 days (in vitro) was 14600 nM.
Work on `NC(=O)c1cccc(-c2cccnc2[C@H](Cc2cc(F)cc(F)c2)NC(=O)Cn2c(C(F)F)nc3ccccc32)c1` [Example 358, (S)-3-(2-(1-(2-(2-(difluoromethyl)-1H-benzo[d]imidazol-1-yl)acetamido)-2-(3,5-difluorophenyl)ethyl)pyridin-3-yl)benzamide] yielded an inhibition at 2 µM (HIV-IIIb) of 20% and a CC50 at 5 days (in vitro) of 47400 nM.
Compound `NC(=O)c1cc(-c2cccnc2[C@H](Cc2cc(F)cc(F)c2)NC(=O)Cn2nc(C(F)(F)F)c3c2CC(O)CC3)ccc1F` (stereo partly drawn) [Example 325, 5-(2-((1S)-2-(3,5-difluorophenyl)-1-(2-(6-hydroxy-3-(trifluoromethyl)-4,5,6,7-tetrahydro-1H-indazol-1-yl)acetamido)ethyl)pyridin-3-yl)-2-fluorobenzamide] has an inhibition at 2 µM (HIV-IIIb) of 86% and a CC50 at 5 days (in vitro) of 46100 nM.
Compound `O=C1Cc2c(cccc2-c2cccnc2[C@H](Cc2cc(F)cc(F)c2)NC(=O)Cn2nc(C(F)F)c3c2C(F)(F)CCC3(F)F)N1` [Example 489D, (S)-2-(3-(difluoromethyl)-4,4,7,7-tetrafluoro-4,5,6,7-tetrahydro-1H-indazol-1-yl)-N-(2-(3,5-difluorophenyl)-1-(3-(2-oxoindolin-4-yl)pyridin-2-yl)ethyl)acetamide] has an inhibition at 2 µM (HIV-IIIb) of 97% and a CC50 at 5 days (in vitro) of 20800 nM.
With `NC(=O)c1cc(-c2cccnc2[C@H](Cc2cc(F)cc(F)c2)NC(=O)Cc2nc3cccc4c3n2CCC4)ccc1F` [Example 152D, (S)-5-(2-(2-(3,5-difluorophenyl)-1-(2-(5,6-dihydro-4H-imidazo[4,5,1-ij]quinolin-2-yl)acetamido)ethyl)pyridin-3-yl)-2-fluorobenzamide] the inhibition at 2 µM (HIV-IIIb) was 81% and the CC50 at 5 days (in vitro) was 28400 nM.
In the case of `NC(=O)c1cccc(-c2cncnc2[C@@H](Cc2cc(F)cc(F)c2)NC(=O)Cc2c[nH]c3ccc(O)cc23)c1` [Example 313, (R)-3-(4-(2-(3,5-difluorophenyl)-1-(2-(5-hydroxy-1H-indol-3-yl)acetamido)ethyl)pyrimidin-5-yl)benzamide], the inhibition at 2 µM (HIV-IIIb) is reported as 14% and the CC50 at 5 days (in vitro) is reported as > 53200 nM.
`NS(=O)(=O)c1cccc(-c2cccnc2[C@H](Cc2cc(F)cc(F)c2)NC(=O)Cc2c[nH]c3ccc(F)cc23)c1` [Example 428, (S)—N-(2-(3,5-difluorophenyl)-1-(3-(3-sulfamoylphenyl)pyridin-2-yl)ethyl)-2-(5-fluoro-1H-indol-3-yl)acetamide] gave an inhibition at 2 µM (HIV-IIIb) of 94% and a CC50 at 5 days (in vitro) of 23000 nM.
`O=C(Cn1nc(C(F)(F)F)c2c1C1CC1CC2)N[C@@H](Cc1cc(F)cc(F)c1)c1ncccc1-c1cnc2[nH]ccc2c1` (stereo partly drawn) [Example 379, N—((S)-1-(3-(1H-pyrrolo[2,3-b]pyridin-5-yl)pyridin-2-yl)-2-(3,5-difluorophenyl)ethyl)-2-(3-(trifluoromethyl)-5,5a,6,6a-tetrahydrocyclopropa[g]indazol-1(4H)-yl)acetamide] showed an inhibition at 2 µM (HIV-IIIb) of 112% and a CC50 at 5 days (in vitro) of 9240 nM.
Compound `NC(=O)c1cc(-c2cccnc2[C@H](Cc2cc(F)cc(F)c2)NC(=O)Cn2cc(C3=CCCC3)c(C(F)(F)F)n2)ccc1F` [Example 355, (S)-5-(2-(1-(2-(4-cyclopentenyl-3-(trifluoromethyl)-1H-pyrazol-1-yl)acetamido)-2-(3,5-difluorophenyl)ethyl)pyridin-3-yl)-2-fluorobenzamide] has an inhibition at 2 µM (HIV-IIIb) of 1% and a CC50 at 5 days (in vitro) of 9460 nM.
Work on `CC(C)(C)c1cc(C(F)(F)F)nn1CC(=O)N[C@@H](Cc1cc(F)cc(F)c1)c1ncccc1-c1ccc(F)c(C(N)=O)c1` [Example 244B, (S)-5-(2-(1-(2-(5-(tert-butyl)-3-(trifluoromethyl)-1H-pyrazol-1-yl)acetamido)-2-(3,5-difluorophenyl)ethyl)pyridin-3-yl)-2-fluorobenzamide] yielded an inhibition at 2 µM (HIV-IIIb) of 0% and a CC50 at 5 days (in vitro) of 16400 nM.
With `CN1CCc2c(C(F)(F)F)nn(CC(=O)N[C@@H](Cc3cc(F)cc(F)c3)c3ncccc3-c3ccc(F)c(C(N)=O)c3)c2C1` [Example 388, (S)-5-(2-(2-(3,5-difluorophenyl)-1-(2-(6-methyl-3-(trifluoromethyl)-4,5,6,7-tetrahydro-1H-pyrazolo[3,4-c]pyridin-1-yl)acetamido)ethyl)pyridin-3-yl)-2-fluorobenzamide] the inhibition at 2 µM (HIV-IIIb) was 54% and the CC50 at 5 days (in vitro) was > 53200 nM.
For `NC(=O)c1cc(-c2cccnc2[C@H](Cc2cc(F)cc(F)c2)NC(=O)Cn2cc(C(=O)O)c(C(F)(F)F)n2)ccc1F` [Example 323, (S)-1-(2-(1-(3-(3-carbamoyl-4-fluorophenyl)pyridin-2-yl)-2-(3,5-difluorophenyl)ethylamino)-2-oxoethyl)-3-(trifluoromethyl)-1H-pyrazole-4-carboxylic acid], the inhibition at 2 µM (HIV-IIIb) was 0% and the CC50 at 5 days (in vitro) was > 53200 nM.
In the case of `O=C(Cc1c[nH]c2ccc(F)cc12)N[C@@H](Cc1cc(F)cc(F)c1)c1ncccc1-c1cnc2ccccc2c1` [Example 111, (S)—N-(2-(3,5-difluorophenyl)-1-(3-(quinolin-3-yl)pyridin-2-yl)ethyl)-2-(5-fluoro-1H-indol-3-yl)acetamide], the inhibition at 2 µM (HIV-IIIb) is reported as 41% and the CC50 at 5 days (in vitro) is reported as 9950 nM.
`O=C(Cc1c[nH]c2ccc(F)cc12)N[C@@H](Cc1cc(F)cc(F)c1)c1ncccc1-c1ccc(Cl)cc1` [Example 33, (S)—N-(1-(3-(4-chlorophenyl)pyridin-2-yl)-2-(3,5-difluorophenyl)ethyl)-2-(5-fluoro-1H-indol-3-yl)acetamide] showed an inhibition at 2 µM (HIV-IIIb) of 75% and a CC50 at 5 days (in vitro) of 9750 nM.
In the case of `NS(=O)(=O)c1ccc(-c2cccnc2[C@H](Cc2cc(F)cc(F)c2)NC(=O)Cc2c[nH]c3ccc(O)cc23)cc1` [Example 43, (S)—N-(2-(3,5-difluorophenyl)-1-(3-(4-sulfamoylphenyl)pyridin-2-yl)ethyl)-2-(5-hydroxy-1H-indol-3-yl)acetamide], the inhibition at 2 µM (HIV-IIIb) is reported as 28% and the CC50 at 5 days (in vitro) is reported as > 53000 nM.
With `NC(=O)c1cc(-c2cccnc2[C@H](Cc2cc(F)cc(F)c2)NC(=O)Cn2[nH]c(=O)c3c2CCCC3)ccc1F` [Example 123E, (S)-5-(2-(2-(3,5-difluorophenyl)-1-(2-(3-oxo-2,3,4,5,6,7-hexahydro-1H-indazol-1-yl)acetamido)ethyl)pyridin-3-yl)-2-fluorobenzamide] the inhibition at 2 µM (HIV-IIIb) was 84% and the CC50 at 5 days (in vitro) was > 53200 nM.
In the case of `NC(=O)c1cc(-c2cccnc2[C@H](Cc2cc(F)cc(F)c2)NC(=O)Cn2c(=O)[nH]c3cc(Cl)c(Cl)cc32)ccc1F` [Example 309, (S)-5-(2-(1-(2-(5,6-dichloro-2-oxo-2,3-dihydro-1H-benzo[d]imidazol-1-yl)acetamido)-2-(3,5-difluorophenyl)ethyl)pyridin-3-yl)-2-fluorobenzamide], the inhibition at 2 µM (HIV-IIIb) is reported as 9% and the CC50 at 5 days (in vitro) is reported as 12000 nM.
Work on `N#Cc1nn(CC(=O)N[C@@H](Cc2cc(F)cc(F)c2)c2ncccc2-c2ccc(F)c(C(N)=O)c2)cc1Br` [Example 359, (S)-5-(2-(1-(2-(4-bromo-3-cyano-1H-pyrazol-1-yl)acetamido)-2-(3,5-difluorophenyl)ethyl)pyridin-3-yl)-2-fluorobenzamide] yielded an inhibition at 2 µM (HIV-IIIb) of 2% and a CC50 at 5 days (in vitro) of 25300 nM.
`NC(=O)c1cc(-c2cccnc2[C@H](Cc2cc(F)cc(F)c2)NC(=O)CC2C(=O)Nc3cc(F)ccc32)ccc1F` (stereo partly drawn) [Example 246, 5-(2-((1S)-2-(3,5-difluorophenyl)-1-(2-(6-fluoro-2-oxoindolin-3-yl)acetamido)ethyl)pyridin-3-yl)-2-fluorobenzamide] showed an inhibition at 2 µM (HIV-IIIb) of 1% and a CC50 at 5 days (in vitro) of 47900 nM.
